Test results taken from PMC9284491 (Nature Communications, 2022).

Experiment: Treatment-emergent adverse events (MedDRA, NCI-CTCAE v4.03), safety populations
Type: in vivo, human
Protocol: Overall safety in Parts A and B was assessed by tabulating TEAEs, coded using the Medical Dictionary for Regulatory Activities (MedDRA) version 22.1, and graded according to NCI-CTCAE v4.03 criteria. TEAEs were classified as related or unrelated to amcenestrant therapy based upon the local investigating physician’s clinical judgment. The safety population included all patients exposed to at least one dose of the study treatment. Results were analyzed using descriptive statistics.

## O=C(O)c1ccc2c(c1)CCCC(c1ccc(Cl)cc1Cl)=C2c1ccc(O[C@H]2CCN(CCCF)C2)cc1 [amcenestrant, 6-(2,4-Dichlorophenyl)−5-[4-[(3S)−1-(3-fluoropropyl)pyrrolidin-3-yl]oxyphenyl]−8,9-dihydro-7H-benzo[7]annulene-2-carboxylic acid]
300 mg BID, 6 participants
  TEAE diarrhea: 3 n
  participants with at least 1 TEAE regardless of relationship: 6 participants
Part A
  TEAE leading to treatment discontinuation: No TEAE led to treatment discontinuation
Part A (n = 16)
  treatment-related TEAE asthenia, patients: 18.8%
  treatment-related TEAE constipation, patients: 18.8%
  treatment-related TEAE decreased appetite, patients: 18.8%
  treatment-related TEAE diarrhea, patients: 25.0%
  treatment-related TEAE hot flush, patients: 31.3%
  treatment-related TEAE nausea, patients: 25.0%
  treatment-related TEAE night sweats, patients: 18.8%
Part A, 20-600 mg QD (N = 16)
  Any TEAE, TEAEs, All grades: 16 (100) n (%)
  Any TEAE, TEAEs, Grade 1: 5 (31.3) n (%)
  Any TEAE, TEAEs, Grade 2: 7 (43.8) n (%)
  Any TEAE, TEAEs, Grade ≥3: 4 (25.0) n (%)
  Any TEAE, Treatment-related TEAEs, All Grades: 13 (81.3) n (%)
  Any TEAE, Treatment-related TEAEs, Grade 1: 10 (62.5) n (%)
  Any TEAE, Treatment-related TEAEs, Grade 2: 3 (18.8) n (%)
  Any TEAE, Treatment-related TEAEs, Grade ≥3: 0 n (%)
  Arthralgia, TEAEs, All grades: 5 (31.3) n (%)
  Arthralgia, TEAEs, Grade 1: 2 (12.5) n (%)
  Arthralgia, TEAEs, Grade 2: 3 (18.8) n (%)
  Arthralgia, TEAEs, Grade ≥3: 0 n (%)
  Arthralgia, Treatment-related TEAEs, All Grades: 2 (12.5) n (%)
  Arthralgia, Treatment-related TEAEs, Grade 1: 1 (6.3) n (%)
  Arthralgia, Treatment-related TEAEs, Grade 2: 1 (6.3) n (%)
  Arthralgia, Treatment-related TEAEs, Grade ≥3: 0 n (%)
  Asthenia, TEAEs, All grades: 4 (25.0) n (%)
  Asthenia, TEAEs, Grade 1: 2 (12.5) n (%)
  Asthenia, TEAEs, Grade 2: 2 (12.5) n (%)
  Asthenia, TEAEs, Grade ≥3: 0 n (%)
  Asthenia, Treatment-related TEAEs, All Grades: 3 (18.8) n (%)
  Asthenia, Treatment-related TEAEs, Grade 1: 3 (18.8) n (%)
  Asthenia, Treatment-related TEAEs, Grade 2: 0 n (%)
  Asthenia, Treatment-related TEAEs, Grade ≥3: 0 n (%)
  Back pain, TEAEs, All grades: 3 (18.8) n (%)
  Back pain, TEAEs, Grade 1: 2 (12.5) n (%)
  Back pain, TEAEs, Grade 2: 0 n (%)
  Back pain, TEAEs, Grade ≥3: 1 (6.3) n (%)
  Back pain, Treatment-related TEAEs, All Grades: 1 (6.3) n (%)
  Back pain, Treatment-related TEAEs, Grade 1: 1 (6.3) n (%)
  Back pain, Treatment-related TEAEs, Grade 2: 0 n (%)
  Back pain, Treatment-related TEAEs, Grade ≥3: 0 n (%)
  Constipation, TEAEs, All grades: 6 (37.5) n (%)
  Constipation, TEAEs, Grade 1: 5 (31.3) n (%)
  Constipation, TEAEs, Grade 2: 1 (6.3) n (%)
  Constipation, TEAEs, Grade ≥3: 0 n (%)
  Constipation, Treatment-related TEAEs, All Grades: 3 (18.8) n (%)
  Constipation, Treatment-related TEAEs, Grade 1: 3 (18.8) n (%)
  Constipation, Treatment-related TEAEs, Grade 2: 0 n (%)
  Constipation, Treatment-related TEAEs, Grade ≥3: 0 n (%)
  Decreased appetite, TEAEs, All grades: 6 (37.5) n (%)
  Decreased appetite, TEAEs, Grade 1: 6 (37.5) n (%)
  Decreased appetite, TEAEs, Grade 2: 0 n (%)
  Decreased appetite, TEAEs, Grade ≥3: 0 n (%)
  Decreased appetite, Treatment-related TEAEs, All Grades: 3 (18.8) n (%)
  Decreased appetite, Treatment-related TEAEs, Grade 1: 3 (18.8) n (%)
  Decreased appetite, Treatment-related TEAEs, Grade 2: 0 n (%)
  Decreased appetite, Treatment-related TEAEs, Grade ≥3: 0 n (%)
  Diarrhea, TEAEs, All grades: 6 (37.5) n (%)
  Diarrhea, TEAEs, Grade 1: 5 (31.3) n (%)
  Diarrhea, TEAEs, Grade 2: 1 (6.3) n (%)
  Diarrhea, TEAEs, Grade ≥3: 0 n (%)
  Diarrhea, Treatment-related TEAEs, All Grades: 4 (25.0) n (%)
  Diarrhea, Treatment-related TEAEs, Grade 1: 3 (18.8) n (%)
  Diarrhea, Treatment-related TEAEs, Grade 2: 1 (6.3) n (%)
  Diarrhea, Treatment-related TEAEs, Grade ≥3: 0 n (%)
  Dyspnea, TEAEs, All grades: 4 (25.0) n (%)
  Dyspnea, TEAEs, Grade 1: 2 (12.5) n (%)
  Dyspnea, TEAEs, Grade 2: 1 (6.3) n (%)
  Dyspnea, TEAEs, Grade ≥3: 1 (6.3) n (%)
  Dyspnea, Treatment-related TEAEs, All Grades: 1 (6.3) n (%)
  Dyspnea, Treatment-related TEAEs, Grade 1: 1 (6.3) n (%)
  Dyspnea, Treatment-related TEAEs, Grade 2: 0 n (%)
  Dyspnea, Treatment-related TEAEs, Grade ≥3: 0 n (%)
  Fatigue, TEAEs, All grades: 4 (25.0) n (%)
  Fatigue, TEAEs, Grade 1: 3 (18.8) n (%)
  Fatigue, TEAEs, Grade 2: 0 n (%)
  Fatigue, TEAEs, Grade ≥3: 1 (6.3) n (%)
  Fatigue, Treatment-related TEAEs, All Grades: 2 (12.5) n (%)
  Fatigue, Treatment-related TEAEs, Grade 1: 2 (12.5) n (%)
  Fatigue, Treatment-related TEAEs, Grade 2: 0 n (%)
  Fatigue, Treatment-related TEAEs, Grade ≥3: 0 n (%)
  Hot flush, TEAEs, All grades: 6 (37.5) n (%)
  Hot flush, TEAEs, Grade 1: 6 (37.5) n (%)
  Hot flush, TEAEs, Grade 2: 0 n (%)
  Hot flush, TEAEs, Grade ≥3: 0 n (%)
  Hot flush, Treatment-related TEAEs, All Grades: 5 (31.3) n (%)
  Hot flush, Treatment-related TEAEs, Grade 1: 5 (31.3) n (%)
  Hot flush, Treatment-related TEAEs, Grade 2: 0 n (%)
  Hot flush, Treatment-related TEAEs, Grade ≥3: 0 n (%)
  Hypoesthesia, TEAEs, All grades: 3 (18.8) n (%)
  Hypoesthesia, TEAEs, Grade 1: 3 (18.8) n (%)
